Measurements: patent US9624229B2, “Pyrimidine-2-amine compounds and their use as inhibitors of JAK kinases” (Rigel Pharmaceuticals, Inc., priority 2008, dated 2017)
Like-named read-outs stand apart in the source and are kept apart here.

Target: Ba/F3 V617F cells (Homo sapiens, UniProt O60674, V617F, cells depend on it)
Test: Proliferation assay (Cell Titer-Glo, 72 h) utilizing Ba/F3 V617F cells
Type: cell-based, mouse
In short: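 Readout is CellTiter-Glo luminescence after 72 h at 37 °C, giving IC50. Cells: Ba/F3 V617F, 1×10^5 cells/mL in RPMI with 10% FBS, treated in duplicate with 3-fold dilution series made from 5 mM DMSO stock, 1:250 in 5% FBS medium, added at 2×.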

[1] = Ba/F3 V617F cells, proliferation, level of activity given as class symbol, read-out: IC50 (the source's name)
[2] = Ba/F3 V617F cells, proliferation, level of activity to inhibit JAK2, read-out: IC50 (the source's name)
[3] = inhibition of JAK2 activity, proliferation of Ba/F3 V617F cells, read-out: IC50 (the source's name)

Sequence of Ba/F3 V617F cells (O60674 whole entry V617F): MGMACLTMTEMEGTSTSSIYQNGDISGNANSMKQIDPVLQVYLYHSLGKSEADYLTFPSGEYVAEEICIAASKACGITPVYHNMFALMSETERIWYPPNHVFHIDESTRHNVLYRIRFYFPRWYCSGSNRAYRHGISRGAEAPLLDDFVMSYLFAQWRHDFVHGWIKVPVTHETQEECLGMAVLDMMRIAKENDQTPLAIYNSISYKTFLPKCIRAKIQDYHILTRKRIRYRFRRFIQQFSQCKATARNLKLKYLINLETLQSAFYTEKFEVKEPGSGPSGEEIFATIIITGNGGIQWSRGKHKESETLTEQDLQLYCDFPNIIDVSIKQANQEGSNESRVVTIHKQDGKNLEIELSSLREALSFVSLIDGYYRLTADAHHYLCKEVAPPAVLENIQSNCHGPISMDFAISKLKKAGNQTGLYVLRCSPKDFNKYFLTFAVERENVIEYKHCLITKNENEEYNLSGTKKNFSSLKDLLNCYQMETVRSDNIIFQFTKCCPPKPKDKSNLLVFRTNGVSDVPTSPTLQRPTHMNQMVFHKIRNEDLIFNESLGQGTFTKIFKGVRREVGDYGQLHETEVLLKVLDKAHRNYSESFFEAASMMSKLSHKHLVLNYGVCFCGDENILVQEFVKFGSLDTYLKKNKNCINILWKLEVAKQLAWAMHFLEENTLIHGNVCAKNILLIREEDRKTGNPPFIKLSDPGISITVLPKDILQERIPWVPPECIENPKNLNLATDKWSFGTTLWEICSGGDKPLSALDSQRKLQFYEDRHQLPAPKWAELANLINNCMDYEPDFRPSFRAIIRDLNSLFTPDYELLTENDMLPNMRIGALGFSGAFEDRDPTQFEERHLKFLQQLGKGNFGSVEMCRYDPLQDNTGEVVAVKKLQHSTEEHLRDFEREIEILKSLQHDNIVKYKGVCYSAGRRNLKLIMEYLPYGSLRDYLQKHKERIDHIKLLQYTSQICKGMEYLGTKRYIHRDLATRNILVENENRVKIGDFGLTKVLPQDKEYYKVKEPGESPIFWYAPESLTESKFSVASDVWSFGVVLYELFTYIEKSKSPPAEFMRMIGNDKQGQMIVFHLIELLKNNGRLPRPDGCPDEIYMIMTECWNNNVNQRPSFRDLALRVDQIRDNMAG

Row | GI50 [1] [nM] | GI50 [2] [nM] | Compound | further results
1 | < 1000 | – | Cc1cc(Nc2nccc(-c3cnc4c(c3)OC(C)(C)C(=O)N4)n2)ccc1N1C[C@@H]2C[C@H]1CN2C1CCCC1 [compound 250, 4-(2,2-dimethyl-3-oxo-3,4-dihydro-2H-pyrido[3,2-b][1,4]oxazin-7-yl)-N-(3-methyl-4-((1S,4S)-5-cyclopentyl-2,5-diazabicyclo[2.2.1]heptan-2-yl)phenyl)pyrimidin-2-amine] | –
2 | – | 1000 to 10000 | CN(C)c1ccc(-c2nc(Nc3ccc(N4C[C@@H]5C[C@H]4CN5C)c(F)c3)ncc2F)cn1 [compound 5, 4-(6-(N,N-dimethylamino)pyridin-3-yl)-5-fluoro-N-(3-fluoro-4-((1S,4S)-5-methyl-2,5-diazabicyclo[2.2.1]heptan-2-yl)phenyl)pyrimidin-2-amine] | –
3 | – | – | Cc1cc(Nc2nccc(-c3ccc(NC(=O)CN4CCOCC4)nc3)n2)cnc1N1C[C@@H]2C[C@H]1CN2C [compound 144, 4-(6-(2-(morpholin-4-yl)acetamido)pyridin-3-yl)-N-(5-methyl-6-((1S,4S)-5-methyl-2,5-diazabicyclo[2.2.1]heptan-2-yl)pyridin-3-yl)pyrimidin-2-amine] | GI50 [3]: 1000 to 10000 nM
4 | – | < 1000 | Cc1cc(Nc2nccc(-c3ccc(N4CCOCC4)nc3)n2)ccc1N1C[C@@H]2C[C@H]1CN2CC1CC1 [compound 37, 4-(6-(morpholin-4-yl)pyridin-3-yl)-N-(3-methyl-4-((1S,4S)-5-(cyclopropyl)methyl-2,5-diazabicyclo[2.2.1]heptan-2-yl)phenyl)pyrimidin-2-amine] | –
5 | – | 1000 to 10000 | CN1C[C@@H]2C[C@H]1CN2c1ccc(Nc2nccc(-c3cnc(N4CCOCC4)cn3)n2)cc1F [compound 179, 4-(5-(morpholin-4-yl)pyrazin-2-yl)-N-(3-fluoro-4-((1S,4S)-5-methyl-2,5-diazabicyclo[2.2.1]heptan-2-yl)phenyl)pyrimidin-2-amine] | –
6 | – | 1000 to 10000 | CN1C[C@@H]2C[C@H]1CN2c1ccc(Nc2nccc(-c3cnc(N4CCOCC4)nc3)n2)cc1 [compound 40, 4-(2-(morpholin-4-yl)pyrimidin-5-yl)-N-(4-((1S,4S)-5-methyl-2,5-diazabicyclo[2.2.1]heptan-2-yl)phenyl)pyrimidin-2-amine] | –
7 | < 1000 | – | Cc1cc(Nc2nccc(-c3ccc(N4C[C@@H]5C[C@H]4CO5)nc3)n2)ccc1N1C[C@@H]2C[C@H]1CO2 [compound 216, 4-(6-((1S,4S)-5-oxa-2-azabicyclo[2.2.1]heptan-2-yl)pyridin-3-yl)-N-(3-methyl-4-((1S,4S)-5-oxa-2-azabicyclo[2.2.1]heptan-2-yl)phenyl)pyrimidin-2-amine] | –
8 | – | < 1000 | Cc1cc(Nc2nccc(-c3cnc4[nH]ccc4c3)n2)ccc1N1C[C@@H]2C[C@H]1CN2CC1CC1 [compound 35, 4-(1H-pyrrolo[2,3-b]pyridin-5-yl)-N-(3-methyl-4-((1S,4S)-5-(cyclopropyl)methyl-2,5-diazabicyclo[2.2.1]heptan-2-yl)phenyl)pyrimidin-2-amine] | –
9 | – | – | CC(=O)N1CCN(c2ccc(-c3ccnc(Nc4cnc(N5C[C@@H]6C[C@H]5CN6C)c(C)c4)n3)cn2)CC1 [compound 63, 4-(6-(4-acetylpiperazin-1-yl)pyridin-3-yl)-N-(5-methyl-6-((1S,4S)-5-methyl-2,5-diazabicyclo[2.2.1]heptan-2-yl)pyridin-3-yl)pyrimidin-2-amine] | GI50 [3]: 1000 to 10000 nM
10 | 1000 to 10000 | – | CS(=O)(=O)N1CC2CC(c3ccc(Nc4nccc(-c5ccc(N6CCOCC6)nc5)n4)cc3)C1C2 (stereo not shown) [compound 229, 4-(6-(morpholin-4-yl)pyridin-3-yl)-N-(4-(2-methylsulfonyl-2-azabicyclo[2.2.1]heptan-6-yl)phenyl)pyrimidin-2-amine] | –
11 | < 1000 | – | Cc1cc(Nc2nccc(-c3ccc4c(c3)OC(C)(C)C(=O)N4)n2)ccc1N1C[C@@H]2C[C@H]1CN2S(C)(=O)=O [compound 241, 4-(2,2-dimethyl-3-oxo-3,4-dihydro-2H-benzo[b][1,4]oxazin-7-yl)-N-(3-methyl-4-((1S,4S)-5-methylsulfonyl-2,5-diazabicyclo[2.2.1]heptan-2-yl)phenyl)pyrimidin-2-amine] | –
12 | – | < 1000 | Cc1cc(Nc2nccc(-c3cnc4[nH]ccc4c3)n2)ccc1N1C[C@@H]2C[C@H]1CN2C [compound 22, 4-(1H-pyrrolo[2,3-b]pyridin-5-yl)-N-(3-methyl-4-((1S,4S)-5-methyl-2,5-diazabicyclo[2.2.1]heptan-2-yl)phenyl)pyrimidin-2-amine] | –
13 | < 1000 | – | Cc1cc(Nc2nccc(-c3cnc4c(c3)OC(C)(C)C(=O)N4)n2)ccc1N1C[C@@H]2C[C@H]1CN2C1CC1 [compound 247, 4-(2,2-dimethyl-3-oxo-3,4-dihydro-2H-pyrido[3,2-b][1,4]oxazin-7-yl)-N-(3-methyl-4-((1S,4S)-5-cyclopropyl-2,5-diazabicyclo[2.2.1]heptan-2-yl)phenyl)pyrimidin-2-amine] | –
14 | – | 1000 to 10000 | Cc1cc(Nc2nccc(-c3cnn(-c4cccc(Cl)c4)c3)n2)ccc1N1C[C@@H]2C[C@H]1CN2C [compound 106, 4-(1-(3-chlorophenyl)-1H-pyrazol-4-yl)-N-(3-methyl-4-((1S,4S)-5-methyl-2,5-diazabicyclo[2.2.1]heptan-2-yl)phenyl)pyrimidin-2-amine] | –
15 | < 1000 | – | COCCN(C)c1ccc(-c2ccnc(Nc3ccc(N4C[C@@H]5C[C@H]4CN5C)c(C)c3)n2)cn1 [compound 219, 4-(6-(2-methoxyethyl)(methyl)aminopyridin-3-yl)-N-(3-methyl-4-((1S,4S)-5-methyl-2,5-diazabicyclo[2.2.1]heptan-2-yl)phenyl)pyrimidin-2-amine] | –
16 | – | < 1000 | Cc1cc(Nc2nccc(-c3ccc(N)nc3)n2)ccc1N1C[C@@H]2C[C@H]1CN2S(C)(=O)=O [compound 150, 4-(6-aminopyridin-3-yl)-N-(3-methyl-4-((1S,4S)-5-methylsulfonyl-2,5-diazabicyclo[2.2.1]heptan-2-yl)phenyl)pyrimidin-2-amine] | –
